Data published in PubChem BioAssay AID1845203 (Molecular Pharmacology Branch, DTP, NCI, 2023).

Test system: G-401 tumor spheroids, viability % test/control
Experiment: Anticancer human tumor G-401 cell line growth inhibition;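 also: spheroids exposed to compound for 7 days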;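 as to viability, T/C: 100% = DMSO vehicle-treated spheroids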
Details: spheroids with HUVEC and MSC; for IC50: curve of first compound; for viability, T/C: stronger effect = lower value
Method in brief: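 Complex spheroids of malignant cells with endothelial cells and mesenchymal stem cells; agents alone or combined, from near clinical Cmax (or 10 microM if unknown) down in half-log steps, 0.25% DMSO final.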

[1] = second compound 30 pM, first compound 0.0316 µM
[2] = second compound 30 pM, first compound 0.1 µM
[3] = second compound 30 pM, first compound 0.316 µM
[4] = second compound 30 pM, first compound 1 µM
[5] = second compound 30 pM, first compound 3.16 µM
[6] = second compound 30 pM, first compound 10 µM
[7] = second compound 94.9 pM, first compound 0.0316 µM
[8] = second compound 94.9 pM, first compound 0.1 µM
[9] = second compound 94.9 pM, first compound 0.316 µM
[10] = second compound 94.9 pM, first compound 1 µM
[11] = second compound 94.9 pM, first compound 3.16 µM
[12] = second compound 94.9 pM, first compound 10 µM
[13] = second compound 0.0003 µM, first compound 0.0316 µM
[14] = second compound 0.0003 µM, first compound 0.1 µM
[15] = second compound 0.0003 µM, first compound 0.316 µM
[16] = second compound 0.0003 µM, first compound 1 µM
[17] = second compound 0.0003 µM, first compound 3.16 µM
[18] = second compound 0.0003 µM, first compound 10 µM
[19] = second compound 0.000949 µM, first compound 0.0316 µM
[20] = second compound 0.000949 µM, first compound 0.1 µM
[21] = second compound 0.000949 µM, first compound 0.316 µM
[22] = second compound 0.000949 µM, first compound 1 µM
[23] = second compound 0.000949 µM, first compound 3.16 µM
[24] = second compound 0.000949 µM, first compound 10 µM
[25] = second compound 0.003 µM, first compound 0.0316 µM
[26] = second compound 0.003 µM, first compound 0.1 µM
[27] = second compound 0.003 µM, first compound 0.316 µM
[28] = second compound 0.003 µM, first compound 1 µM
[29] = second compound 0.003 µM, first compound 3.16 µM
[30] = second compound 0.003 µM, first compound 10 µM

## COc1ccc([C@@H](O)c2cc(-c3ncnc4cc(N5CCOCC5)ccc34)c(F)cc2Cl)nn1 + COc1cc2c(cc1O)CCNC21CSC2c3c(OC(C)=O)c(C)c4c(c3C(COC1=O)N1C(O)C3Cc5cc(C)c(OC)c(O)c5C(C21)N3C)OCO4
Second compound 30 pM
  IC50: 1 µM
Second compound 94.9 pM
  IC50: 0.493 µM
Second compound 0.0003 µM
  IC50: < 0.0316 µM
Second compound 0.000949 µM
  IC50: < 0.0316 µM
Second compound 0.003 µM
  IC50: < 0.0316 µM
[1]
  viability, T/C: 93.1%
[2]
  viability, T/C: 99.2%
[3]
  viability, T/C: 87.4%
[4]
  viability, T/C: 50%
[5]
  viability, T/C: 16.5%
[6]
  viability, T/C: 9.53%
[7]
  viability, T/C: 83.8%
[8]
  viability, T/C: 83.1%
[9]
  viability, T/C: 63.6%
[10]
  viability, T/C: 27.7%
[11]
  viability, T/C: 9.96%
[12]
  viability, T/C: 5.51%
[13]
  viability, T/C: 40%
[14]
  viability, T/C: 29.8%
[15]
  viability, T/C: 18.6%
[16]
  viability, T/C: 8.98%
[17]
  viability, T/C: 3.1%
[18]
  viability, T/C: 0.75%
[19]
  viability, T/C: 5.15%
[20]
  viability, T/C: 5.57%
[21]
  viability, T/C: 2.21%
[22]
  viability, T/C: 0.51%
[23]
  viability, T/C: 0.05%
[24]
  viability, T/C: 0.16%
[25]
  viability, T/C: 0.22%
[26]
  viability, T/C: 0.25%
[27]
  viability, T/C: 0.21%
[28]
  viability, T/C: 0.21%
[29]
  viability, T/C: 0.16%
[30]
  viability, T/C: 0.25%

## COc1cc(C)[nH]c(=O)c1CN1CCc2c(Cl)cc(C(OC)C3COC3)c(Cl)c2C1=O (stereo not given) + CC[C@@]1(O)C(=O)OCc2c1cc1n(c2=O)Cc2cc3c(CN(C)C)c(O)ccc3nc2-1
Second compound 0.003 µM
  IC50: 0.13 µM
Second compound 0.00949 µM
  IC50: < 0.0316 µM
Second compound 0.03 µM
  IC50: < 0.0316 µM
Second compound 0.0949 µM
  IC50: < 0.0316 µM
Second compound 0.3 µM
  IC50: < 0.0316 µM
[25]
  viability, T/C: 85.9%
[26]
  viability, T/C: 52.9%
[27]
  viability, T/C: 37.2%
[28]
  viability, T/C: 31.9%
[29]
  viability, T/C: 29.3%
[30]
  viability, T/C: 23.8%
Second compound 0.00949 µM, first compound 0.0316 µM
  viability, T/C: 49.9%
Second compound 0.00949 µM, first compound 0.1 µM
  viability, T/C: 44.4%
Second compound 0.00949 µM, first compound 0.316 µM
  viability, T/C: 26.1%
Second compound 0.00949 µM, first compound 1 µM
  viability, T/C: 23.6%
Second compound 0.00949 µM, first compound 3.16 µM
  viability, T/C: 23.3%
Second compound 0.00949 µM, first compound 10 µM
  viability, T/C: 19.6%
Second compound 0.03 µM, first compound 0.0316 µM
  viability, T/C: 16%
Second compound 0.03 µM, first compound 0.1 µM
  viability, T/C: 13.7%
Second compound 0.03 µM, first compound 0.316 µM
  viability, T/C: 10.3%
Second compound 0.03 µM, first compound 1 µM
  viability, T/C: 11.8%
Second compound 0.03 µM, first compound 3.16 µM
  viability, T/C: 12%
Second compound 0.03 µM, first compound 10 µM
  viability, T/C: 9.84%
Second compound 0.0949 µM, first compound 0.0316 µM
  viability, T/C: 7.14%
Second compound 0.0949 µM, first compound 0.1 µM
  viability, T/C: 7.77%
Second compound 0.0949 µM, first compound 0.316 µM
  viability, T/C: 7.29%
Second compound 0.0949 µM, first compound 1 µM
  viability, T/C: 6.9%
Second compound 0.0949 µM, first compound 3.16 µM
  viability, T/C: 6.42%
Second compound 0.0949 µM, first compound 10 µM
  viability, T/C: 6.61%
Second compound 0.3 µM, first compound 0.0316 µM
  viability, T/C: 5.24%
Second compound 0.3 µM, first compound 0.1 µM
  viability, T/C: 5.58%
Second compound 0.3 µM, first compound 0.316 µM
  viability, T/C: 5.45%
Second compound 0.3 µM, first compound 1 µM
  viability, T/C: 5.13%
Second compound 0.3 µM, first compound 3.16 µM
  viability, T/C: 5.04%
Second compound 0.3 µM, first compound 10 µM
  viability, T/C: 4.44%

## [2H]c1nc(C)nc([2H])c1-c1cc(NC[C@@H](C)c2cccc3c(C(=O)NC)ccnc23)ncn1 + COc1cc2c(cc1O)CCNC21CSC2c3c(OC(C)=O)c(C)c4c(c3C(COC1=O)N1C(O)C3Cc5cc(C)c(OC)c(O)c5C(C21)N3C)OCO4
Second compound 30 pM
  IC50: > 10 µM
Second compound 94.9 pM
  IC50: > 10 µM
Second compound 0.0003 µM
  IC50: < 0.0316 µM
Second compound 0.000949 µM
  IC50: < 0.0316 µM
Second compound 0.003 µM
  IC50: < 0.0316 µM
[1]
  viability, T/C: 103%
[2]
  viability, T/C: 103%
[3]
  viability, T/C: 106%
[4]
  viability, T/C: 105%
[5]
  viability, T/C: 98.6%
[6]
  viability, T/C: 106%
[7]
  viability, T/C: 88.6%
[8]
  viability, T/C: 87.5%
[9]
  viability, T/C: 93%
[10]
  viability, T/C: 93.1%
[11]
  viability, T/C: 93.9%
[12]
  viability, T/C: 91.4%
[13]
  viability, T/C: 36.1%
[14]
  viability, T/C: 39.9%
[15]
  viability, T/C: 40%
[16]
  viability, T/C: 42.6%
[17]
  viability, T/C: 31.8%
[18]
  viability, T/C: 37.4%
[19]
  viability, T/C: 7.05%
[20]
  viability, T/C: 5.74%
[21]
  viability, T/C: 8.4%
[22]
  viability, T/C: 8.02%
[23]
  viability, T/C: 6.93%
[24]
  viability, T/C: 3.48%
[25]
  viability, T/C: 0.16%
[26]
  viability, T/C: 0.17%
[27]
  viability, T/C: 0.14%
[28]
  viability, T/C: 0.13%
[29]
  viability, T/C: 0.14%
[30]
  viability, T/C: 0.22%
